Measured values from paper PMC5573368, “Elucidation of Dietary Polyphenolics as Potential Inhibitor of Microtubule Affinity Regulating Kinase 4: In silico and In vitro Studies” (Scientific Reports, 2017).
Read-outs that look alike come from different tables or passages of the source.

What was measured:
[1] = target: T1, MARK4 (Homo sapiens, UniProt Q96L34); assay: Fluorescence quenching binding study (modified Stern-Volmer); conditions: excitation 280 nm, 25 °C
T1 construct: inferred from Ni-NTA purification; made in house
T1 sequence (Q96L34 59-368): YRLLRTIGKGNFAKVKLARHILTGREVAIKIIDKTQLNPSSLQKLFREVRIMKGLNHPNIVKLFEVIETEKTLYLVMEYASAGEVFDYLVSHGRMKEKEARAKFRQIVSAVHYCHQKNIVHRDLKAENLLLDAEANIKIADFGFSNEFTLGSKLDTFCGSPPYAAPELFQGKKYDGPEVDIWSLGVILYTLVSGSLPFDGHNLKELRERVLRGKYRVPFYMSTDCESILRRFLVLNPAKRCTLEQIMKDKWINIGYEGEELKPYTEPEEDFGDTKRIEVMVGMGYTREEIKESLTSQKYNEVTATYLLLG

[2] = target: T1, MARK4; assay: ATPase inhibition assay ([γ-32P]ATP hydrolysis, TLC); format: biochemical
[3] = test system: phosphorylation of tau in SH-SY5Y cells; assay: Tau-phosphorylation assay by flow cytometry (anti-tau pSer262); format: cell-based, human; conditions: 80–120 μM, 24 hrs
[4] = target: T1, MARK4; assay: Isothermal titration calorimetry; format: binding; conditions: ITC, two-site model; for K a1 (association constant): site 1, 25 °C; for K a2 (association constant): site 2, 25 °C
[5] = test system: MCF-7 cells; assay: MTT cell proliferation assay, MCF-7; format: cell-based; conditions: Homo sapiens, MCF7; MCF-7, MTT, 48 h; read-out: IC50 (cell viability)
Procedure: (§1) Briefly, breast cancer cells (MCF-7), human cervical cancer cells (HeLa), human neuroblastoma (SH-SY5Y) cells and human embryonic kidney cells (HEK293T) were seeded in a 96 well plates at a concentration of 10 × 10^3 viable cells per well. […] After 48 h of treatment, both medium and inhibitor were removed from the cells, washed twice with phosphate buffer saline (PBS) and then 20 µl MTT (from 5 mg/ml stock) and 100 µl DMEM was loaded to each well followed by 4–5 hours incubation in a CO2 incubator at 37 °C. Finally, the residual MTT medium was removed carefully and dissolves the crystals of formazan by adding 100 µl DMSO in each well. The micro-titer plates were then agitated for 15–20 minutes on an orbital plate shaker and then absorbance at 570 nm was determined on a titerplate reader (BioRad). The absorbance value so obtained was converted into percentage viability in comparison to the control cells (untreated cells/cells treated with media only). For cell proliferation studies doxorubicin has been taken as positive control.

[6] = test system: HeLa cells; assay: MTT cell proliferation assay, HeLa; format: cell-based; conditions: Homo sapiens, 48 h, read-out: IC50 (cell viability)
Procedure: as §1

[7] = test system: HEK293 cells; assay: MTT cell proliferation assay, HEK293; format: cell-based, human; conditions: 48 h, at a dose even higher than 200 μM
Procedure: as §1

[8] = test system: SH-SY5Y cells; assay: MTT cell proliferation assay, SH-SY5Y; format: cell-based, human; conditions: 48 h, at a dose even higher than 200 μM
Procedure: as §1

[9] = test system: MCF-7 cells; assay: Annexin-V apoptosis assay by flow cytometry; format: cell-based, human; conditions: MCF-7, IC50 concentration (rutin 80 μM, vanillin 120 μM), 48 h
Excerpt: Apoptosis plays a central role in the progress and pathophysiology of a wide variety of diseases. However, due to impairment of apoptotic signal transmission most of the cancerous cells evade apoptosis. […] Annexin- V staining was used to study the apoptosis. […] Cells were washed twice with phosphate-buffered saline (PBS) and stained with FITC labeled Annexin- V. Annexin- Vpositive cells were examined by flow cytometry. […] Annexin-V staining was used to determine the cell apoptosis, [73]. […] After treatment, nearly 2 × 10^6 cells were trypsinized and washed two times with 5 ml of PBS by centrifuging at 1800 rpm for 4 min. FITC-Annexin-V staining was done by using FITC-Annexin-V kit according to the manufacturer’s instructions (BD-Biosciences, USA). 10,000 events for each sample were analyzed by flow cytometry BD FACS Canto and data analysis was performed with help of flowJo software.

[10] = test system: MCF-7 cells; assay: Intracellular ROS by DCFDA staining; format: cell-based, human; conditions: MCF-7, 20–120 μM, 12 h
Procedure: (§2) Followed by incubation, to measure intracellular ROS, 2-Dichlorofluorescein diacetate (DCFDA) staining was performed. […] Further, cytoplasmic superoxide level was measured by dihydroethidium staining (Fig. 7C). […] In fluorescence imaging, substantial decreases in the extent of DHE fluorescence as compared to control (untreated cells) have been observed (Fig. 7C ). […] Total Reactive oxygen species determination (ROS) content inside the cells was determined using the DCFDA reagent. This assay measures various ROS such as H2O2 and hydroxyl radicals. […] After that cells were washed twice with PBS, pH7.4, trypsinized and collected by centrifugation. Finally cells were resuspended in 300 μl of PBS and fluorescence was measured at Jasco spectroflourimeter (FP-6200) using a 5 mm quartz cuvette. The excitation and emission filters were set at 485/500–550 nm respectively. Similarly with some modifications, cytosolic superoxide levels were determined using dihydroxyethidium staining. Briefly, cells were grown on coverslips to 70–80% confluency and replaced the complete media with reduced serum media for overnight. […] Following DHE staining, DAPI is used to satin nuclei of the cells as described earlier. Fluorescence images were taken on Nikon-EclipseTS100 microscope.

[11] = test system: MCF-7 cells; assay: Cytoplasmic superoxide by DHE staining; format: cell-based, human; conditions: MCF-7, rutin 80 μM, vanillin 120 μM
Procedure: as §2

[12] = site 1, read-out: K D1 (dissociation constant)
[13] = site 2, read-out: K D2 (dissociation constant)

| Binding affinity (K a) [1] | IC50 [5] | SMILES | inhibition at 40 µM [2] | Phosphorylation of tau [3] | K a1 (association constant) [4] | Kd [4, 12] | K a2 (association constant) [4] | Kd [4, 13] | IC50 [6] | Effect on cell viability [7] | Effect on cell viability [8] | Increase in apoptosis as compared to the control cells [9] | DCF fluorescence (intracellular ROS) [10] | Cytoplasmic superoxide levels (DHE fluorescence) [11] | further results |
| --- | --- | --- | --- | --- | --- | --- | --- | --- | --- | --- | --- | --- | --- | --- | --- |
| 13000 M⁻¹ |  | COc1cc(/C=C/C(=O)O)ccc1O [Ferulic acid] |  |  |  |  |  |  |  |  |  |  |  |  |  |
| 16500 M⁻¹ | 120 µM | COc1cc(C=O)ccc1O [Vanillin] | ~50% | inhibit the phosphorylation of tau | K a1 = 8.43 × 10^3 ± 0.5 × 10^3 M^−1 | 119 µM | K a2 = 1.45 × 10^5 ± 0.29 × 10^5 M^−1 | 6.9 µM | > 200 µM | did not inhibit the viability | did not inhibit the viability | 9% | dose-dependent decrease in DCF fluorescence | decreases cytoplasmic superoxide levels |  |
|  | 0.12 µM | COc1cccc2c1C(=O)c1c(O)c3c(c(O)c1C2=O)C[C@@](O)(C(=O)CO)C[C@@H]3O[C@H]1C[C@H](N)[C@H](O)[C@H](C)O1 [doxorubicin, reference compound] |  |  |  |  |  |  |  |  |  |  |  |  |  |
| 7.6 M⁻¹ |  | O=C(O)c1cc(O)c(O)c(O)c1 [Gallic acid] |  |  |  |  |  |  |  |  |  |  |  |  |  |

| SMILES | Binding affinity (K a) [1] | IC50 [5] | inhibition at 40 µM [2] | Phosphorylation of tau [3] | K a1 (association constant) [4] | Kd [4, 12] | K a2 (association constant) [4] | Kd [4, 13] | IC50 [6] | Effect on cell viability [7] | Effect on cell viability [8] | Increase in apoptosis as compared to the control cells [9] | DCF fluorescence (intracellular ROS) [10] | Cytoplasmic superoxide levels (DHE fluorescence) [11] | further results |
| --- | --- | --- | --- | --- | --- | --- | --- | --- | --- | --- | --- | --- | --- | --- | --- |
| C[C@@H]1O[C@@H](OC[C@H]2O[C@@H](Oc3c(-c4ccc(O)c(O)c4)oc4cc(O)cc(O)c4c3=O)[C@H](O)[C@@H](O)[C@@H]2O)[C@H](O)[C@H](O)[C@H]1O [Rutin] | 287000 M⁻¹ | 80 µM | ~50% | inhibit the phosphorylation of tau | K a1 = 2.04 × 10^5 ± 0.15 × 10^5 M^−1 | 4.9 µM | K a2 = 1.72 × 10^6 ± 0.31 × 10^6 M^−1 | 0.581 µM | > 200 µM | did not inhibit the viability | did not inhibit the viability | 12% | dose-dependent decrease in DCF fluorescence | decreases cytoplasmic superoxide levels | ATPase enzyme activity in initial screening ([2]; initial screening, compound 30 µM (Fig. S5)): significant decrease in the enzyme activity; ΔH 1 (enthalpy change) ([4]; site 1): ΔH 1 = −4.61 × 10^6 cal/mol; ΔS 1 ([4]; site 1): ΔS 1 = −1.52 × 10^4 cal/mol/deg; ΔH 2 (enthalpy change) ([4]; site 2): ΔH 2 = −1.0 × 10^4 cal/mol; ΔS 2 ([4]; site 2): ΔS 2 = −4.74 cal/mol/deg |
| COc1ccc([C@@H]2CC(=O)c3c(O)cc(O[C@@H]4O[C@H](CO[C@@H]5O[C@@H](C)[C@H](O)[C@@H](O)[C@H]5O)[C@@H](O)[C@H](O)[C@H]4O)cc3O2)cc1O [Hesperidin] | 112 M⁻¹ |  |  |  |  |  |  |  |  |  |  |  |  |  |  |
